Results: patent publication US20060286159A1 (priority 2003, published 2006)
Entries after “also recorded” stand apart in the source; their conditions may differ.

Assays:
[1] = system: chronic non-insertional Achilles tendinopathy; test: Non-insertional Achilles tendinopathy clinical trial (randomized, double blind, placebo controlled); assay type: in vivo, human
From the text: Three clinical trials were approved by an institutional Ethics Committee. Patients with clinical diagnoses of the specified tendinopathies were recruited through newspaper advertisements and private consulting rooms. All subjects were over 18 years of age, and gave written informed consent.
In the non-insertional Achilles tendinopathy trial, there were 65 patients (84 Achilles tendons) with 40 men and 25 women enrolled in the study, having a median age of 49 years (range 24 to 77 years), and a median duration of symptoms prior to the study of 16 months (range 4 to 147 months). In the extensor tendinopathy trial, there were 86 patients (95 elbows), with 42 males and 44 females, having a median age of 46 years (range 30 to 74 years), and a median duration of symptoms of 17 months (range 3 to 232 months). In the supraspinatus tendinopathy trial, there were 53 patients (57 shoulders), with 24 males and 29 females, having a median age of 52 years (range 25 to 79 years), and a median symptom duration of 14 months (range 4 to 96).
Diagnostic criteria for patient inclusion in the respective trials were as follows. The diagnosis of chronic non-insertional Achilles tendinopathy was based on an insidious onset of Achilles tendon pain, a tender nodule localized to the region 2 to 6 centimeters from the calcaneal insertion, and an ultrasound examination that excluded a frank tendon tear. The diagnosis of chronic extensor tendinopathy at the elbow was based on an insidious onset of lateral elbow pain, tenderness localized to the lateral humeral epicondyle and extensor carpi radialis brevis tendon, pain in the lateral elbow with resisted wrist or third metacarpophalangeal joint extension, and an ultrasound examination that excluded a frank tendon tear. The diagnosis of chronic supraspinatus tendinopathy was based on positive impingement signs (internal or external rotation), pain with supraspinatus muscle testing, and magnetic resonance imaging (MRI) high signal intensity without frank tear in the supraspinatus tendon.
Patients were excluded if they had tendinopathy of less than three months duration, current pregnancy, previous surgery on the affected limb or tendon, dislocation of the ipsilateral limb joints, distal neurological signs, a local corticosteroid injection in the previous three months, the current use of nitrate medications or phosphodiesterase inhibitors such as Viagra™, a family history of arthritis other than osteoarthritis, or extra-articular features of seronegative arthropathies. Generally, every participating patient could be considered to have persistent active tendinopathy.
The patients were randomly allocated into two groups. […] The active and placebo patches were indistinguishable from one another. The randomization was controlled by the senior pharmacist at the institution who also supervised the packaging of transdermal patches and their distribution to patients. Both the patients and the clinical examiner were blinded as to which group the patients were in, i.e. double-blind.
The transdermal patches were intact when distributed, and patients were required to cut the patches into quarters prior to application. Patients were also given a supply of paracetamol tablets (500 mg), and were instructed to use them exclusively for any headaches experienced.
Patients were instructed in the application of the patches at their initial visit. They were informed that the dosing regimen was one quarter of a transdermal patch to be applied daily to the skin area closest to the affected tendon. The patches were to be left in situ for 24 hours and then replaced with a new quarter patch. […] Patients were instructed to rotate the patch application site around this point with each new patch application for the six-month study duration in an effort to minimize application site irritation.
At the initial clinical assessment, all patients were instructed in the performance of a tendon specific rehabilitation program. […]

[2] = system: Achilles tendinopathy (heels); test: Three year follow-up study of the Achilles trial of Example 1; assay type: in vivo, human; details: for Night Pain—All Heels (mean adjusted for baseline) / Pain at Rest—All Heels (mean adjusted for baseline) / Pain With Activity—All Heels (mean adjusted for baseline) / Tenderness—All Heels (mean adjusted for baseline) / Hop Test—All Heels (mean adjusted for baseline): N=32; for Pain With Activity—All Heels (mean adjusted for baseline): scale 0-4; for Tenderness—All Heels (mean adjusted for baseline): scale 0-3; for Hop Test—All Heels (mean adjusted for baseline): pain score 0-10
Procedure: A three year follow-up study of the experiment presented in Example 1 was performed. […] Among the 52 patients in follow-up study ([…]), 15 had bilateral involvement (7 on the active patch and 8 on placebo). The results are presented in two sets. The follow-up study used the same outcome measures as were used in the original parent study.
The first set compares the results of the 68 heels and the second set results are shown for the 52 patients by averaging results for patients with bilateral involvement. Analyses were performed as analyses of covariance, with the baseline assessment as the covariate, to adjust the results for baseline differences. Mean results shown in Tables III-XIII below are adjusted for the baseline values.

[3] = system: persistent active tendinopathy of the left Achilles tendon; test: Example 3: patient case, persistent active tendinopathy of the left Achilles tendon; assay type: in vivo, human; details: patch 30 mcg/hr for 8 weeks
From the text: A patient suffering from persistent active tendinopathy of the left Achilles tendon applies a transdermal patch delivering 30 mcg/hr nitroglycerin for a period of 8 weeks.

chronic tennis elbow = test: Example 5: patient case, chronic tennis elbow; assay type: in vivo, human; details: patch 60 mcg/hr for 2 weeks
From the text: A patient suffering from chronic tennis elbow applies a transdermal patch delivering 60 mcg/hr nitroglycerin for a period of 2 weeks.

[4] = system: chronic extensor tendinopathy at the elbow; test: Extensor tendinopathy (tennis elbow) clinical trial (randomized, double blind, placebo controlled)
[5] = week 24, more patients asymptomatic with activities of daily living than placebo, 1.25 mg/24 h patch + rehabilitation
[6] = 3 years, N=24, placebo 0.51, p=0.09
[7] = 24 weeks, N=24, placebo 0.86, p=0.09

O=[N+]([O-])OCC(CO[N+](=O)[O-])O[N+](=O)[O-] [glyceryl trinitrate, 1,2,3-propanetriol trinitrate]
Headache (Days) Average ([1]; GTN group): GTN 5 Days | Headache (Days) Median ([1]; GTN group): GTN 4 Days | Headache (Days) Total ([1]; GTN group): 85 days | Headache: percentage of patients ([1]; GTN group): 53% | No Side Effects ([1]; GTN group): GTN 44% | Other Noted Side-Effects: Increase Tinnitus ([1]; GTN group): Tinnitus (3%) | Tenderness Outcomes: Achilles tenderness vs placebo ([1]; Week 12 (p=0.02)): significant decreases; also recorded: significantly less; also recorded: Decreased Week | Pain Outcomes: Achilles tendon pain with activity vs placebo ([1]; Week 12 (p=0.02) / 24 (p=0.03)): significant decrease; also recorded: Decreased | Pain Outcomes: night pain vs placebo ([1]; Week 12 (p=0.04)): significant decrease; also recorded: Decreased | Functional Outcomes Measures: Hop Test vs placebo ([1]; Week 24): Increased Hop | Force Outcomes: ORI-ASTS mean plantarflexion total work vs placebo ([1]; Week 24 (p=0.04), from baseline levels): significant increase; also recorded: Increased Mean | Other Noted Side-Effects: Rash ([1]; application site, GTN group): Rash 16%, | number needed to treat (NNT) ([1]; excellent result at 24 weeks, Chi square p=0.001): 3.4 | total amount of paracetamol required for headache treatment vs placebo ([1]; p=0.001): significant increases; also recorded: significant between-group differences | Discontinuations: Headache ([1]; patients, all GTN group): Headache 1 | Discontinuations: Rash ([1]; patients, all GTN group): Rash, | Paracetamol Average ([1]; used for headache, GTN group): GTN 14 tablets | Paracetamol Median ([1]; used for headache, GTN group): GTN 10 tablets | Paracetamol Total ([1]; used for headache, GTN group): GTN 237 tablets | pain scores after the 10 hop test vs placebo ([1]; week 24 (p=0.005)): significant decrease | Improved Patient Outcomes [1, 5]: 29% | patients with excellent improvement (asymptomatic with activities of daily living), patient reported ([1]; week 24, placebo 49%): 78% | Night Pain—Average Result Used for Bilateral Patients ([2]; 3 years, N=24, placebo 0.29, p=0.06): 0.07 | Pain at Rest—Average Result Used for Bilateral Patients ([2]; 3 years, N=24, placebo 0.39, p=0.08): 0.10 | Hop Test—Average Result Used for Bilateral Patients [2, 6]: 0.15 | Pain With Activity—Average Result Used for Bilateral Patients [2, 6]: 0.15 | Tenderness—Average Result Used for Bilateral Patients ([2]; 3 years, N=24, placebo 0.66, p=0.052): 0.33 | RTS, % ([2]; 3 years, N=24, placebo 71.4%, p=0.16): 87.5% | Night Pain—All Heels (mean adjusted for baseline) ([2]; 3 years, placebo 0.27, p=0.07): 0.10 | Pain at Rest—All Heels (mean adjusted for baseline) ([2]; 3 years, placebo 0.35, p=0.07): 0.10 | Pain With Activity—All Heels (mean adjusted for baseline) ([2]; 3 years, placebo 0.50, p=0.059): 0.16 | Tenderness—All Heels (mean adjusted for baseline) ([2]; 3 years, placebo 0.66, p=0.031): 0.35 | Hop Test—All Heels (mean adjusted for baseline) ([2]; 3 years, placebo 0.96, p=0.07): 0.36 | Night Pain—Average Result Used for Bilateral Patients ([2]; 24 weeks, N=24, placebo 0.34, p=0.11): 0.15 | Pain at Rest—Average Result Used for Bilateral Patients ([2]; 24 weeks, N=24, placebo 0.46, p=0.20): 0.26 | Hop Test—Average Result Used for Bilateral Patients [2, 7]: 0.44 | Pain With Activity—Average Result Used for Bilateral Patients [2, 7]: 0.44 | Tenderness—Average Result Used for Bilateral Patients ([2]; 24 weeks, N=24, placebo 0.90, p=0.43): 0.70 | Night Pain—All Heels (mean adjusted for baseline) ([2]; 24 weeks, placebo 0.30, p=0.36): 0.19 | Pain at Rest—All Heels (mean adjusted for baseline) ([2]; 24 weeks, placebo 0.41, p=0.35): 0.29 | Pain With Activity—All Heels (mean adjusted for baseline) ([2]; 24 weeks, placebo 0.78, p=0.22): 0.52 | Tenderness—All Heels (mean adjusted for baseline) ([2]; 24 weeks, placebo 0.83, p=0.49): 0.69 | Hop Test—All Heels (mean adjusted for baseline) ([2]; 24 weeks, placebo 1.57, p=0.026): 0.61 | results of each assessment vs placebo ([2]; both at 24 weeks and at 3 years): numerically better results | pain and tenderness of the ankle after discontinuation ([3]; eight weeks following discontinuation): continue to feel decreased pain and tenderness of the ankle | pain and tenderness of the ankle during therapy ([3]; person): reduction of pain and tenderness of the ankle by day 2 of therapy | continuation of the reduction of symptoms after discontinuance (chronic tennis elbow): at least two weeks | Headache (Days) Average ([4]; GTN group): GTN 5 Days | Headache (Days) Median ([4]; GTN group): GTN 3 Days | Headache (Days) Total ([4]; GTN group): 136 days | Headache: percentage of patients ([4]; GTN group): 63% | No Side Effects ([4]; GTN group): GTN 35% | Other Noted Side-Effects: Increase Axillary Sweating ([4]; GTN group): Sweating 2% | Pain Outcomes: elbow pain with activity vs placebo ([4]; Week 2 (p=0.01)): significant decrease; also recorded: Decreased | Tenderness Outcomes: lateral epicondylar tenderness vs placebo ([4]; Week 6 (p=0.02) / 12 (p=0.02)): significant decreases; also recorded: significantly less; also recorded: Decreased | Force Outcomes: ORI-TETS mean peak force vs placebo ([4]; Week 24 (p=0.03)): significant increase; also recorded: Increased Mean | Force Outcomes: ORI-TETS mean total work vs placebo ([4]; Week 24 (p=0.03)): significant increase; also recorded: Increased Mean | Other Noted Side-Effects: Rash ([4]; application site, GTN group): Rash 21%, | number needed to treat (NNT) ([4]; excellent result at 24 weeks, Chi square p=0.005): 4.8 | Discontinuations: Headache ([4]; patients, all GTN group): Headache 2 | Discontinuations: Rash ([4]; patients, all GTN group): Rash 2, | Paracetamol Average ([4]; used for headache, GTN group): GTN 8 tablets | Paracetamol Median ([4]; used for headache, GTN group): GTN 4 tablets | Paracetamol Total ([4]; used for headache, GTN group): GTN 214 tablets | Improved Patient Outcomes [4, 5]: 21% | patients with excellent improvement, patient reported ([4]; week 24, placebo 60%): 81%
